# US9616065B2, “Compositions useful in treating brain-related diseases or disorders and methods using same” (priority 2013, dated 2017)
# “Also recorded” adds a separate entry of the source. Like-named read-outs stand apart in the source and are kept apart here.
# Experiments:
# SmSERT = SmSERT (Schistosoma mansoni, UniProt Q3I1M7); experiment: Transport inhibition constants, SmSERT; type: cell-based
# mSERT mutant YETQ-L563V = experiment: Substrate-elicited efflux, mSERT mutant YETQ-L563V; type: cell-based, mouse; conditions: up to highest testable concentration
# Method: Efflux is terminated by collecting the supernatant. Both cells and supernatant are counted by liquid scintillation counting. Efflux is calculated as ratio of supernatant over supernatant and cells.
# SERT [1] = target: T1, SERT (Homo sapiens, UniProt P31645); experiment: cell-based
# T1 construct: The templates were full-length and nontagged human SERT in pcdna3.1; expressed in transfected cells; host or cells: COS-7, HEK293 or MDCK (uptake); COS-7 (efflux)
# Method: (§1) COS-7, HEK293, and MDCK cells were maintained in Dulbecco modified Eagle medium (3.5 g/l glucose) supplemented with FBS (10% each) at 37° C. with 5% CO2. Uptake experiments were performed 2 days after transfecting DNAs (hSERT, human dopamine transporter [hDAT], chimeras or mutants, or empty vector for background) with TransIT-LT1 (Minis Bio LLC, Madison, Wis., USA) transfection reagent and plating the cells in 24- or 96-well plates.
# (§2) The uptake was allowed to continue for 10 min at room temperature and was terminated by washing with PBS-CM. […] Vmax and KM are given as mean±S.D. of three independent experiments. […] EC50 values are given as mean±S.E.M. of at least five independent experiments. Statistical significance between vehicle and drug treatments was assessed using Student t-test or one-way analysis of variance (ANOVA) Dunnett's multiple-comparison test (p<0.05).
# [2] = target: T2, hSERT 112C mutant (N112C) (Homo sapiens, UniProt P31645, N112C); experiment: MDMA-elicited [3H]-serotonin efflux in COS-7 cells, 112C mutant; type: cell-based; conditions: for effect on MDMA-elicited efflux: 112C (N112C) mutant, 1 μM modulator
# T2 construct: The templates were full-length and nontagged human SERT in pcdna3.1; expressed in transfected cells; host or cells: COS-7 (efflux)
# Method: (§3) COS-7 cells were maintained under the same conditions as above. Efflux experiments were performed 2 days after cell transfection with hSERT or empty vector and plating of the cells in 24-well plates. Cells were washed with room temperature PBS-CM and then loaded with 50 nM [^3H]-serotonin for 1 h. After preloading, cells were washed twice with buffer and then incubated for 10 min with or without substrates at room temperature. After incubation, the supernatant was collected, liquid scintillation fluid added, and the samples counted (Beckman LS-6500 Multi-purpose Scintillation Counter; Beckman Coulter, Brea, Calif.). The cells were solubilized in a solution of 0.1% sodium dodecyl sulfate and 0.1 M NaOH; liquid scintillation fluid was added and tubes were counted as above. All assays were done in quadruplicate.
# (§4) The percentage of [^3H]-serotonin efflux among different treatments was calculated by adding counts of supernatant plus cell lysis, with the supernatant counts then divided by the total and multiplied by 100 to yield the percentage of efflux.
# SERT [3] = target: T1, SERT; experiment: [3H]-serotonin uptake after preincubation with modulator; type: cell-based; conditions: for effect on Vmax of serotonin uptake: serotonin uptake kinetics
# Method: as §1, §2
# SERT E493D mutant = target: T3, SERT E493D mutant (Homo sapiens, UniProt P31645, E493D); experiment: SERT function with mutated extracellular gate; type: cell-based
# T3 construct: The templates were full-length and nontagged human SERT in pcdna3.1; expressed in transfected cells; host or cells: COS-7
# SERT [4] = target: T1, SERT; experiment: SERT-mediated serotonin uptake inhibition by SSRIs in presence of modulator; type: cell-based; conditions: effect weaker than with citalopram
# Method: as §1, with “plates. The media was removed and the cells were washed with PBS (137 mM NaCl, 2.7 mM KCl, 4.3 mM Na2HPO4, 1.4 mM KH2PO4, pH 7.4) containing 0.1 mM CaCl2, 1 mM MgCl2, 10 μM clorgyline, 10 μM pargyline, 5 μM RO 41-0960, and 100 μM ascorbic acid (PBS-CM).” for “plates.”
# Mutants are functionally tested in transfected COS-7 cells. Based on the success of the approach that identified the A1 site, the critical residues identified elsewhere herein are tested for changes in uptake kinetics and amphetamine-mediated efflux. Following this initial screen, residues displaying altered activity are tested further in uptake inhibition and ligand displacement assays. […] Following uptake, cells are washed and radioactivity is counted using liquid scintillation counting. […] Apparent Km and Vmax are determined using nonlinear regression analysis. The interaction of WT and mutant MAT with psychostimulants and transporter inhibitors is assessed using uptake inhibition assays. […]
# hDAT = target: T4, hDAT (Homo sapiens, UniProt Q01959); experiment: [3H]-dopamine uptake after preincubation with modulator; type: cell-based
# T4 construct: expressed in transfected cells; host or cells: COS-7, HEK293 or MDCK
# Method: as §1, §2
# wild-type human SERT = wild-type human SERT (Homo sapiens, UniProt P31645); experiment: MDMA-elicited [3H]-serotonin efflux in COS-7 cells, wild-type; type: cell-based; design: The templates were full-length and nontagged human SERT in pcdna3.1; expressed in transfected cells; host or cells: COS-7 (efflux); conditions: for effect on MDMA-elicited efflux: 1 μM modulator
# Method: as §3, §4
# hSERT wild-type = target: T5, hSERT wild-type (Homo sapiens, UniProt P31645); experiment: Basal/leak [3H]-serotonin efflux in COS-7 cells, wild-type; type: cell-based; conditions: no extracellular substrate, read-out: IC50 inhibition of basal/leak efflux
# T5 construct: The templates were full-length and nontagged human SERT in pcdna3.1; expressed in transfected cells; host or cells: COS-7 (efflux)
# Method: as §3, §4
# paroxetine binding sites = paroxetine binding sites (Homo sapiens, UniProt P31645); experiment: Paroxetine binding
# hSERT 112C mutant = target: T6, hSERT 112C mutant (Homo sapiens, UniProt P31645, N112C); experiment: Basal/leak [3H]-serotonin efflux in COS-7 cells, 112C mutant; type: cell-based
# T6 construct: The templates were full-length and nontagged human SERT in pcdna3.1; expressed in transfected cells; host or cells: COS-7 (efflux); COS-7, HEK293 or MDCK (uptake)
# Method: as §3, §4
# T4 sequence (Q01959 whole entry): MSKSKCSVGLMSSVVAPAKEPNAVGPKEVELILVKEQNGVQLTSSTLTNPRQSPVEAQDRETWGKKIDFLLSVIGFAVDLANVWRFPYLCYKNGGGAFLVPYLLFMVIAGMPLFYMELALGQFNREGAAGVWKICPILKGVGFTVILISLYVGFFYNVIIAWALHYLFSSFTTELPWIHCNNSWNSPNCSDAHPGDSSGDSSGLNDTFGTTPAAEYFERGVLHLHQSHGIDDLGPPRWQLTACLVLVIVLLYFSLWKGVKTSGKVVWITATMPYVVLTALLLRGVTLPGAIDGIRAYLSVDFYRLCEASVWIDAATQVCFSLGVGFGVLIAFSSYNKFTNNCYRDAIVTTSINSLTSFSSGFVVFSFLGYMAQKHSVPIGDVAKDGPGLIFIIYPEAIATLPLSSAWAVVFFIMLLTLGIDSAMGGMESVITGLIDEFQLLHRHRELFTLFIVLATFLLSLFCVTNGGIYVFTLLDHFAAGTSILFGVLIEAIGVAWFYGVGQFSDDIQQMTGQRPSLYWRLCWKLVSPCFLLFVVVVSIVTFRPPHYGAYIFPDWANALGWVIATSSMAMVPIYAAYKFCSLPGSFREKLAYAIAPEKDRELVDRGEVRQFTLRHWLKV
# Chain of SmSERT (Q3I1M7 entry or part of it): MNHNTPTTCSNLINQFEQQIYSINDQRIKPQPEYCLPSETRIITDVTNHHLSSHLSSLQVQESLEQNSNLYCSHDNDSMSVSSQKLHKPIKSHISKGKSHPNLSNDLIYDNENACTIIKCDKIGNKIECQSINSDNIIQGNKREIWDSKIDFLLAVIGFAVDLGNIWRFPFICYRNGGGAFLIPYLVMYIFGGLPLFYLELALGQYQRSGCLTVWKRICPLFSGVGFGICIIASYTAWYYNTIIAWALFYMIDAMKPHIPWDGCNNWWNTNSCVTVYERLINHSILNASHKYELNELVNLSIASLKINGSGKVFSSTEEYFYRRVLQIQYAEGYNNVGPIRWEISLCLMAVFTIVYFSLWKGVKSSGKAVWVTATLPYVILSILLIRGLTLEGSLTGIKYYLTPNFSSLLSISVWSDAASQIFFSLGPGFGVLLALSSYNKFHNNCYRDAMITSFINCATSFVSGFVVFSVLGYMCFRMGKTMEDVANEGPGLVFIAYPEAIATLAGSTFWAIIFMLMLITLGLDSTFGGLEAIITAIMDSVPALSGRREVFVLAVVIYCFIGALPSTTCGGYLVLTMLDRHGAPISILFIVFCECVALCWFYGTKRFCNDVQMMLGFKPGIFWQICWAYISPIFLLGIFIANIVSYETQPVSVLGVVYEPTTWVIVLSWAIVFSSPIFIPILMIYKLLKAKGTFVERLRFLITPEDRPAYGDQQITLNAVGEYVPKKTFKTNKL
compound,measurement,setting,value
"CNC(C)Cc1ccc2c(c1)OCO2 (racemic) [(±)MDMA, methylenedioxy-methamphetamine]",Ki,SmSERT,313 ± 159 µM
same,reversal of transport (efflux),mSERT mutant YETQ-L563V,did not elicit any significant reversal of transport
same,Ki,SERT [1],2.7 ± 0.5 µM
same,affinity for MDMA of mutant versus wild-type,"[2]; N112C, dose-response experiment with MDMA",reduced by fivefold
"Cc1cc2nc(-c3ccc(SCC(=O)Nc4ccc(S(=O)(=O)NC5CC5)cc4)nc3)[nH]c2cc1C [ATM1, N-[4-(cyclopropylsulfamoyl)phenyl]-2-{[5-(5,6-dimethyl-1H-benzimidazol-2-yl)-2-pyridinyl]sulfanyl}acetamide]",effect on SERT uptake activity / specificity,SERT [3],SERT-specific inhibitor
same,mechanism of SERT inhibition,SERT [3]; Vmax and KM,non-competitive mechanism
same,effect on SERT uptake activity / specificity,SERT [3]; listed as KM-456,specific for SERT
same,effect on SERT function,SERT E493D mutant,not affected
same,effect on affinity of fluoxetine for SERT,SERT [4],decreasing their affinity for SERT
"CN(C)c1ccc(C(C(=O)NCc2ccccc2)N(Cc2cccnc2)C(=O)c2snc(C(N)=O)c2N)cc1 (stereo not drawn) [ATM7, 4-amino-N^5-{2-(benzylamino)-1-[4-(dimethylamino)phenyl]-2-oxoethyl}-N^5-(3-pyridinylmethyl)-1,2-thiazole-3,5-dicarboxamide]",effect on SERT uptake activity / specificity,SERT [3],activated serotonin uptake very potently at nanomolar concentrations
same,shape of concentration response on transporter uptake,SERT [3],bell-shaped response
same,activation of serotonin uptake,SERT [3]; dose-response assay,up to 50%
same,shape of concentration response on transporter uptake,SERT [3]; listed as KM-986,"biphasic mode of action, enhancing transporter activity at low concentrations and inhibiting transporter function at higher concentrations"
same,effect on Vmax of serotonin uptake,SERT [3],did not affect Vmax; also recorded: no effect
same,effect on Vmax of serotonin uptake,SERT [3]; listed as KM-986,do not observe any effect; also recorded: no effect
same,effect on hSERT uptake at low and high substrate concentration,SERT [3]; substrate 25 and 100 nM,displayed activity only at low concentrations
same,effect on DAT uptake activity / specificity,hDAT,also DAT activity at higher concentrations
same,effect on affinity for MDMA,wild-type human SERT; 1 μM ATM7,not affected
same,efficacy of MDMA in eliciting release of intracellular serotonin in the presence of ATM7,"wild-type human SERT; 1 μM ATM7, vehicle treated 380%±10%",510%±17%
same,effect on MDMA-elicited efflux,wild-type human SERT,enhanced MDMA-elicited efflux
same,effect on MDMA-elicited efflux,wild-type human SERT; listed as KM-986,potentiates MDMA-elicited efflux
same,IC50,hSERT wild-type,0.00063 ± 0.00031 µM
same,effect on paroxetine binding sites,paroxetine binding sites,decreased
same,IC50,hSERT 112C mutant,0.037 ± 0.025 µM
same,efficacy of MDMA in eliciting release of intracellular serotonin in the presence of ATM7,"[2]; 1 μM ATM7, 112C mutant, vehicle treated 365%±40%",375%±45%
same,effect on MDMA-elicited efflux,[2],had no effect on MDMA-elicited efflux
same,effect on MDMA-elicited efflux,[2]; listed as KM-986,does not show KM-986-mediated potentiation of MDMA-elicited efflux
